{
  "source": "patent EP0357134B1",
  "about": "“Antihypertensive 3-piperidinyl-indazole derivatives” (priority 1988, dated 1990)",
  "format_in_all_cases": "in vivo",
  "key": {"beagle dogs": {"tested_on": "beagle dogs", "test": "The apomorphine test in dogs (APO-dog)", "settings": "Canis lupus familiaris, 1 h; dose protecting 50% of animals from emesis; compound subcutaneously or orally; 0.31 mg/kg (s.c.) apomorphine one hour thereafter; read-out: (APO)-dog test, ED₅₀ in mg/kg", "protocol": "The method used is described by P.A.J. Janssen and C.J.E. Niemegeers in Arzneim.-Forsch. (Drug Res.), 9,765-767 (1959). The compounds listed in table 4 were administered subcutaneously or orally to beagle dogs at different doses and the animals were challenged one hour thereafter with a standard dose of 0.31 mg/kg (s.c.) of apomorphine.\nThe table 4 gives the ED₅₀-values of a number of the compounds under consideration. As used herein, the ED₅₀ value represents the dose which protects 50% of the animals from emesis."}, "adult male Wistar rats [1]": {"tested_on": "adult male Wistar rats", "test": "Combined test in rats: apomorphine (APO) test", "settings": "Rattus norvegicus, 0.5 h, read-out: Combined test in rats, ED₅₀ in mg/kg (APO)", "protocol": "(§1) The experimental animals used in this test were adult male Wistar rats (weight 240 ± 10g). After an overnight fast, the animals were treated subcutaneously or orally with an aqueous solution of the compound under investigation (1ml/100g body weight) (time = zero) and put in isolated observation cages. […] At the end of this 1 hour period (time = 90 minutes) the same animals were injected intravenously with 40 mg/kg of tryptamine (TRY) and the presence of the typical tryptamine-induced bilateral tonic seizures and hyperaemia of the ears was noted. Two hours after pretreatment (time = 120 minutes) finally, the same animals were challenged with 1.25 mg/kg intravenously of norephinephrine (NOR) and possible mortality was looked for up to 60 minutes later.\n(§2) The table 4 gives the ED₅₀-values of a number of the compounds under consideration. As used herein, the ED₅₀-value represents the dose which protects 50% of the animals from apomorphine-, tryptamine- or norepinephrine-induced phenomena."}, "adult male Wistar rats [2]": {"tested_on": "adult male Wistar rats", "test": "Combined test in rats: norepinephrine (NOR) test", "settings": "Rattus norvegicus; protection from norepinephrine-induced mortality; compound subcutaneously or orally; 1.25 mg/kg norepinephrine i.v. at 120 minutes, observed up to 60 minutes; read-out: Combined test in rats; ED₅₀ in mg/kg (NOR)", "protocol": "as §1, §2"}, "adult male Wistar rats [3]": {"tested_on": "adult male Wistar rats", "test": "Combined test in rats: tryptamine (TRY) test", "settings": "Rattus norvegicus, 1.5 h, compound subcutaneously or orally, 40 mg/kg tryptamine i.v. at 90 minutes, read-out: Combined test in rats", "protocol": "as §1, §2"}, "[4]": {"settings": "protection from tryptamine-induced bilateral tonic seizures, ED₅₀ in mg/kg (TRY)-convulsions"}, "[5]": {"settings": "protection from tryptamine-induced hyperaemia of the ears, ED₅₀ in mg/kg (TRY)-hyperaemia"}, "[6]": {"settings": "dose protecting 50% of animals from apomorphine-induced agitation and stereotypic chewing, compound subcutaneously or orally, 1.25 mg/kg apomorphine hydrochloride i.v. at 30 minutes"}},
  "data": [
    {"smiles": "Cc1nc2n(c(=O)c1CCN1CCC(c3nn(C)c4cc(F)ccc34)CC1)CCS2", "note": "[Compound 25]", "values": [
      {"measurement": "ED50", "setting": "beagle dogs", "result": "< 0.015", "unit": "mg/kg"},
      {"measurement": "ED50", "setting": "adult male Wistar rats [1]", "result": "> 10", "unit": "mg/kg"},
      {"measurement": "ED50", "setting": "adult male Wistar rats [2]", "result": 0.31, "unit": "mg/kg"},
      {"measurement": "ED50", "setting": "adult male Wistar rats [3]; [4]", "result": 1.25, "unit": "mg/kg"},
      {"measurement": "ED50", "setting": "adult male Wistar rats [3]; [5]", "result": 0.01, "unit": "mg/kg"}
    ]},
    {"smiles": "Cc1nc2c(C)cccn2c(=O)c1CCN1CCC(c2nn(Cc3ccccc3)c3cc(F)ccc23)CC1", "note": "[Compound 29]", "values": [
      {"measurement": "ED50", "setting": "beagle dogs", "result": 0.004, "unit": "mg/kg"},
      {"measurement": "ED50", "setting": "adult male Wistar rats [1]; [6]", "result": 1.25, "unit": "mg/kg"},
      {"measurement": "ED50", "setting": "adult male Wistar rats [2]", "result": 1.25, "unit": "mg/kg"},
      {"measurement": "ED50", "setting": "adult male Wistar rats [3]; [4]", "result": 5, "unit": "mg/kg"},
      {"measurement": "ED50", "setting": "adult male Wistar rats [3]; [5]", "result": "≤ 0.16", "unit": "mg/kg"}
    ]},
    {"smiles": "Cc1nc2n(c(=O)c1CCN1CCC(c3n[nH]c4cc(F)ccc34)CC1)CCCC2", "note": "[Compound 13]", "values": [
      {"measurement": "ED50", "setting": "beagle dogs", "result": 0.015, "unit": "mg/kg"},
      {"measurement": "ED50", "setting": "adult male Wistar rats [1]", "result": "> 10", "unit": "mg/kg"},
      {"measurement": "ED50", "setting": "adult male Wistar rats [2]", "result": 0.31, "unit": "mg/kg"},
      {"measurement": "ED50", "setting": "adult male Wistar rats [3]; [4]", "result": 1.25, "unit": "mg/kg"},
      {"measurement": "ED50", "setting": "adult male Wistar rats [3]; [5]", "result": 0.02, "unit": "mg/kg"}
    ]},
    {"smiles": "Cc1nc2sccn2c(=O)c1CCN1CCC(c2n[nH]c3cc(F)ccc23)CC1", "note": "[Compound 17]", "values": [
      {"measurement": "ED50", "setting": "beagle dogs", "result": 0.004, "unit": "mg/kg"},
      {"measurement": "ED50", "setting": "adult male Wistar rats [1]", "result": 5, "unit": "mg/kg"},
      {"measurement": "ED50", "setting": "adult male Wistar rats [2]", "result": 2, "unit": "mg/kg"},
      {"measurement": "ED50", "setting": "adult male Wistar rats [3]; [4]", "result": 5, "unit": "mg/kg"},
      {"measurement": "ED50", "setting": "adult male Wistar rats [3]; [5]", "result": 0.03, "unit": "mg/kg"}
    ]},
    {"smiles": "Cc1nc2sccn2c(=O)c1CCN1CCC(c2nn(-c3ccc(F)cc3)c3cc(F)ccc23)CC1", "note": "[Compound 16]", "values": [
      {"measurement": "ED50", "setting": "adult male Wistar rats [1]", "result": "> 10", "unit": "mg/kg"},
      {"measurement": "ED50", "setting": "adult male Wistar rats [2]", "result": "> 10", "unit": "mg/kg"},
      {"measurement": "ED50", "setting": "adult male Wistar rats [3]; [4]", "result": 5, "unit": "mg/kg"},
      {"measurement": "ED50", "setting": "adult male Wistar rats [3]; [5]", "result": 0.08, "unit": "mg/kg"}
    ]},
    {"smiles": "Cc1nc2n(c(=O)c1CCN1CCC(c3n[nH]c4cc(F)ccc34)CC1)CCS2", "note": "[Compound 2, 6-[2-[4-(6-fluoro-1H-indazol-3-yl)-1-piperidinyl]ethyl]-2,3-dihydro-7-methyl-5H-thiazolo[3,2-a]pyrimidin-5-one]", "values": [
      {"measurement": "ED50", "setting": "beagle dogs", "result": 0.002, "unit": "mg/kg"},
      {"measurement": "ED50", "setting": "adult male Wistar rats [1]", "result": 5, "unit": "mg/kg"},
      {"measurement": "ED50", "setting": "adult male Wistar rats [2]", "result": 0.31, "unit": "mg/kg"},
      {"measurement": "ED50", "setting": "adult male Wistar rats [3]; [4]", "result": 5, "unit": "mg/kg"},
      {"measurement": "ED50", "setting": "adult male Wistar rats [3]; [5]", "result": 0.005, "unit": "mg/kg"}
    ]},
    {"smiles": "Cc1nc2sccn2c(=O)c1CCN1CCC(c2nn(C)c3cc(F)ccc23)CC1", "note": "[Compound 18]", "values": [
      {"measurement": "ED50", "setting": "beagle dogs", "result": 0.2, "unit": "mg/kg"},
      {"measurement": "ED50", "setting": "adult male Wistar rats [1]; [6]", "result": 5, "unit": "mg/kg"},
      {"measurement": "ED50", "setting": "adult male Wistar rats [2]", "result": 1.25, "unit": "mg/kg"},
      {"measurement": "ED50", "setting": "adult male Wistar rats [3]; [4]", "result": 1.25, "unit": "mg/kg"},
      {"measurement": "ED50", "setting": "adult male Wistar rats [3]; [5]", "result": 0.005, "unit": "mg/kg"}
    ]},
    {"smiles": "Cc1nc2scc(C)n2c(=O)c1CCN1CCC(c2nn(C)c3cc(F)ccc23)CC1", "note": "[Compound 21]", "values": [
      {"measurement": "ED50", "setting": "beagle dogs", "result": 0.12, "unit": "mg/kg"},
      {"measurement": "ED50", "setting": "adult male Wistar rats [1]", "result": 1.25, "unit": "mg/kg"},
      {"measurement": "ED50", "setting": "adult male Wistar rats [2]", "result": 0.31, "unit": "mg/kg"},
      {"measurement": "ED50", "setting": "adult male Wistar rats [3]; [4]", "result": 0.08, "unit": "mg/kg"},
      {"measurement": "ED50", "setting": "adult male Wistar rats [3]; [5]", "result": 0.005, "unit": "mg/kg"}
    ]},
    {"smiles": "Cc1nc2scc(C)n2c(=O)c1CCN1CCC(c2nn(-c3ccc(F)cc3)c3cc(F)ccc23)CC1", "note": "[Compound 20]", "values": [
      {"measurement": "ED50", "setting": "adult male Wistar rats [1]", "result": "> 10", "unit": "mg/kg"},
      {"measurement": "ED50", "setting": "adult male Wistar rats [2]", "result": "> 10", "unit": "mg/kg"},
      {"measurement": "ED50", "setting": "adult male Wistar rats [3]; [4]", "result": "≥ 10", "unit": "mg/kg"},
      {"measurement": "ED50", "setting": "adult male Wistar rats [3]; [5]", "result": 0.08, "unit": "mg/kg"}
    ]},
    {"smiles": "Cc1nc2ccccn2c(=O)c1CCN1CCC(c2nn(-c3ccc(F)cc3)c3cc(F)ccc23)CC1", "note": "[Compound 9]", "values": [
      {"measurement": "ED50", "setting": "adult male Wistar rats [1]", "result": "> 10", "unit": "mg/kg"},
      {"measurement": "ED50", "setting": "adult male Wistar rats [2]", "result": 5, "unit": "mg/kg"},
      {"measurement": "ED50", "setting": "adult male Wistar rats [3]; [4]", "result": 5, "unit": "mg/kg"},
      {"measurement": "ED50", "setting": "adult male Wistar rats [3]; [5]", "result": 0.08, "unit": "mg/kg"}
    ]},
    {"smiles": "Cc1nc2ccccn2c(=O)c1CCN1CCC(c2nn(C)c3cc(F)ccc23)CC1", "note": "[Compound 11]", "values": [
      {"measurement": "ED50", "setting": "beagle dogs", "result": 0.12, "unit": "mg/kg"},
      {"measurement": "ED50", "setting": "adult male Wistar rats [1]", "result": 5, "unit": "mg/kg"},
      {"measurement": "ED50", "setting": "adult male Wistar rats [2]", "result": 0.08, "unit": "mg/kg"},
      {"measurement": "ED50", "setting": "adult male Wistar rats [3]; [4]", "result": 0.31, "unit": "mg/kg"},
      {"measurement": "ED50", "setting": "adult male Wistar rats [3]; [5]", "result": 0.005, "unit": "mg/kg"}
    ]},
    {"smiles": "COc1ccc(Cn2nc(C3CCN(CCc4c(C)nc5n(c4=O)CCS5)CC3)c3ccc(F)cc32)cc1", "note": "[Compound 30, 6-[2-[4-[6-fluoro-1-[(4-methoxyphenyl)methyl]-1H-indazol-3-yl]-1-piperidinyl]ethyl]-2,3-dihydro-7-methyl-5H-thiazolo[3,2-a]pyrimidin-5-one]", "values": [
      {"measurement": "ED50", "setting": "beagle dogs", "result": "> 0.63", "unit": "mg/kg"},
      {"measurement": "ED50", "setting": "adult male Wistar rats [1]", "result": "> 10", "unit": "mg/kg"},
      {"measurement": "ED50", "setting": "adult male Wistar rats [2]", "result": 5, "unit": "mg/kg"},
      {"measurement": "ED50", "setting": "adult male Wistar rats [3]; [4]", "result": 10, "unit": "mg/kg"},
      {"measurement": "ED50", "setting": "adult male Wistar rats [3]; [5]", "result": 0.08, "unit": "mg/kg"}
    ]},
    {"smiles": "COc1ccc2c(C3CCN(CCc4c(C)nc5sccn5c4=O)CC3)n[nH]c2c1", "note": "[Compound 34]", "values": [
      {"measurement": "ED50", "setting": "beagle dogs", "result": "> 0.01", "unit": "mg/kg"},
      {"measurement": "ED50", "setting": "adult male Wistar rats [1]; [6]", "result": "> 10", "unit": "mg/kg"},
      {"measurement": "ED50", "setting": "adult male Wistar rats [2]", "result": 1.25, "unit": "mg/kg"},
      {"measurement": "ED50", "setting": "adult male Wistar rats [3]; [4]", "result": "> 10", "unit": "mg/kg"},
      {"measurement": "ED50", "setting": "adult male Wistar rats [3]; [5]", "result": 1.25, "unit": "mg/kg"}
    ]}
  ]
}
